{"source": "patent US20100120679A1", "about": "“Targeting NBS1-ATM Interaction To Sensitize Cancer Cells To Radiotherapy And Chemotherapy” (SOUTHERN RESEARCH INSTITUTE, priority 2006, published 2010)", "key": {"[1]": {"test_system": "NBS1 phosphorylation on serine 343 in HeLa cells", "test": "IR-induced NBS1 pSer343 focus formation, HeLa", "assay_type": "cell-based, human", "source_text": "(§1) Error bars represent +/−1 SD, graphed are the mean of three independent experiments.\nTo further support the idea that wtNIP can inhibit ATM-mediated DNA damage pathways, IR-induced NBS1 focus formation, an event considered to be an ATM-dependent process at the sites of DSBs (Lim et al., 2000) was investigated. NBS1 foci are a result of ATM-mediated NBS1 phosphorylation on serine 343. […] The average number of foci in mock-irradiated HeLa cells was 6, 8, and 6 for R9, wtNIP, and scNIP, respectively."}, "[2]": {"molecular_target": "T1, NBS1 binding to MRE11 (Homo sapiens, UniProt P49959)", "T1 construct": "endogenous in cells; host or cells: HeLa", "T1 sequence (P49959 1-708)": "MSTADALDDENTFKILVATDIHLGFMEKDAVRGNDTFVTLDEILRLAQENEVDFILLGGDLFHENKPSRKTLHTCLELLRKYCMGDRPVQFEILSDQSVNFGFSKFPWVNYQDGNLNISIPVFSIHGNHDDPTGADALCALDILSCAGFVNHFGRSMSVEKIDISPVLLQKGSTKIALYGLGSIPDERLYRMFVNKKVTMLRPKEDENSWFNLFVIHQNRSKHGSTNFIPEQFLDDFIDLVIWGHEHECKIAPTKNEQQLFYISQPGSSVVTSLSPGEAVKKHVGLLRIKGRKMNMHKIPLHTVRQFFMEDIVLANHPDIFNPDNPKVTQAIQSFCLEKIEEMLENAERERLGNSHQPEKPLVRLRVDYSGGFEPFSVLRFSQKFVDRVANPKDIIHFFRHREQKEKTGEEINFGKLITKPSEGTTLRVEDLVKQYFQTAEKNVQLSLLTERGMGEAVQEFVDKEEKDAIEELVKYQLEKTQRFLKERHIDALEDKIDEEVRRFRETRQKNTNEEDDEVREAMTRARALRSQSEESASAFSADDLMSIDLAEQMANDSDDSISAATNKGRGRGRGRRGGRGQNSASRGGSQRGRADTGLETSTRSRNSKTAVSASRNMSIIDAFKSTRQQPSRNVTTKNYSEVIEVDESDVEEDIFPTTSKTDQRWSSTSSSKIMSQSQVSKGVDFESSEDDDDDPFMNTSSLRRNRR", "test": "Co-immunoprecipitation of MRE11 with NBS1 in peptide-treated cells", "assay_type": "cell-based", "conditions": "HeLa cells, four hours after peptide treatment", "method": "HeLa cells treated with the NIP peptides were irradiated (0 or 6Gy). Immunoprecipitation was performed with a rabbit NBS1 antibody, and Western blotting was performed with monoclonal antibodies against ATM, NBS1 or MRE11.\nImmunoprecipitation and Western blotting: For co-immunoprecipitation of ATM, NBS1 and MRE11, cells were lysed 1 hour in ice-cold lysis buffer, which consisted of 10 mM Tris-HCl (pH 7.5), 100 mM NaCl, 5 mM EDTA, 0.5% NP-40, 5 mM Na3VO4, 1 mM NaF, and 1 mM PMSF. After centrifugation, supernatants were incubated with indicated antibodies. After extensive washing with the lysis buffer, immunoprecipitates were analyzed by immunoblot using specific antibodies. For western blotting analysis, samples (cell lysates or immunoprecipitates) were separated on 4-12% SDS-poly-acrylamide gels, transferred to nitrocellulose membranes, and probed with various antibodies.\nwtNIP Abrogated the NBS1-ATM Interaction: To investigate whether R9-conjugated NIP peptides could inhibit NBS1-ATM interactions, coimmunoprecipitation experiments were performed in cells treated with the NIP peptides. Four hours after peptide treatment, HeLa cells were harvested and subjected to immunoprecipitation using an anti-NBS1 antibody. The immunoprecipitates were then blotted with anti-ATM, NBS1, and MRE11 antibodies."}, "[3]": {"test_system": "γ-H2AX foci in DU-145 cells", "test": "IR-induced γ-H2AX focus formation, DU-145", "assay_type": "cell-based, human", "conditions": "10 μM peptide, 6Gy", "source_text": "as §1\n(§2) wtNIP Inhibits IR-Induced γ-H2AX and NBS1 pSer343 Focus Formation: One of the earliest responses to IR-induced DNA damage is the formation of γ-H2AX foci, which requires functional ATM (Burma et al., 2001; Furuta et al., 2003). […] Immunofluorescence microscopy was used to detect the presence of γ-H2AX foci in mock-irradiated or irradiated cells in the presence of R9, wtNIP or scNIP. […] Therefore, IR-induced γ-H2AX focus formation can be inhibited by wt-NIP."}, "[4]": {"test_system": "HeLa cells", "test": "Colony formation assay (radiosensitivity), HeLa", "method": "Shown in A (HeLa), C (MO59J) and D (GM9607) are the susvival curves after indicated doses of radiation. Error bars represent +/−1 SEM, graphed are the mean of three independent experiments.\nColony formation assays: To determine the radiosensitivity, the colony forming assay was incorporated. Cells were harvested with 0.125% trypsin-0.05% EDTA, pelleted and re-suspended in 1 ml fresh media with a 22 g needle to disperse clumps prior to hemocytometer counting in trypan blue. Cells were then plated at limiting dilutions in […] and allowed to adhere overnight. Cultures were treated with PBS, R9, wtNIP, or scNIP for 1 hour, and irradiated (0-6Gy). Fresh peptides were added every four hours until 24 hours after IR, when the medium was replaced with peptide-free medium. Cultures were incubated for 10-12 days, harvested and stained with 0.5% crystal violet in methanol. Colony number was determined with a dissecting microscope. A population of >50 cells was counted as one colony, and the number of colonies was expressed as a percentage of the value for untreated mock irradiated control cells. The surviving curves were plotted by linear regression analyses and the D0 value represents the radiation dose that leads to 37% of survival. To determine the radiosensitizing potential of the peptides in comparison to other small molecule inhibitors, the sensitizing enhancement ratio (SER) was calculated based on the dose of radiation required to reduce survival to 37% in the presence of scNIP or wtNIP. The following formula was used: […]\nStatistics: To establish statistical significance, Student's t-test was incorporated. The data were first fit to each experimental group over a dose range of 0-6Gy. Significant differences were established at p<0.05.\nFIG. 6A depicts the survival curves for HeLa cells treated with R9, wtNIP, or scNIP over a dose range of 0 to 6 Gy."}, "[5]": {"test_system": "γ-H2AX foci in HeLa cells", "test": "IR-induced γ-H2AX focus formation, HeLa", "assay_type": "cell-based, human", "source_text": "as §1, §2"}}, "note": "Peptide text beside a SMILES is read from it. * marks the point of attachment. Biotin = O=C1N[C@H]2[C@H](CS[C@H]2CCCCC(=O)*)N1", "data": [{"smiles": "CC(C)C[C@H](NC(=O)[C@H](CC(=O)O)NC(=O)[C@H](CC(=O)O)NC(=O)[C@H](C)NC(=O)[C@H](CC(C)C)NC(=O)[C@H](CO)NC(=O)[C@H](CCC(=O)O)NC(=O)[C@H](CCC(=O)O)NC(=O)[C@H](CCCCN)NC(=O)[C@H](CCCNC(=N)N)NC(=O)[C@H](CCCNC(=N)N)NC(=O)[C@H](CCCNC(=N)N)NC(=O)[C@H](CCCNC(=N)N)NC(=O)[C@H](CCCNC(=N)N)NC(=O)[C@H](CCCNC(=N)N)NC(=O)[C@H](CCCNC(=N)N)NC(=O)[C@H](CCCNC(=N)N)NC(=O)[C@H](CCCNC(=N)N)NC(=O)CCCC[C@@H]1SC[C@@H]2NC(=O)N[C@@H]21)C(=O)O", "note": "[wtNIP] (Biotin-RRRRRRRRRKEESLADDL-OH)", "values": [{"measurement": "NBS1 pSer343 foci per nucleus", "setting": "[1]; HeLa cells after treatment with 6-Gy IR", "value": 6, "unit": "foci per nucleus"}, {"measurement": "NBS1 phosphorylation (anti-phospho-Ser343 NBS1 antibody)", "setting": "[1]; compared with R9 or scNIP treated cells", "value": "significantly inhibited"}, {"measurement": "average number of NBS1 pSer343 foci", "setting": "[1]; mock-irradiated HeLa cells", "value": 8}, {"measurement": "NBS1 binding to MRE11", "setting": "[2]", "value": "did not interfere with NBS1 binding to MRE11"}, {"measurement": "IR-induced γ-H2AX focus formation", "setting": "[3]", "value": "significantly reduced H2AX foci/nucleus"}, {"measurement": "D0 (mean lethal dose required for 37% survival)", "setting": "[4]", "value": 1.9}, {"measurement": "SER (dose required to reduce survival to 37%, scNIP versus wtNIP)", "setting": "[4]", "value": 1.58}, {"measurement": "sensitizer enhancement ratio", "setting": "[4]; 2Gy", "value": 1.66}, {"measurement": "sensitizer enhancement ratio", "setting": "[4]; 4Gy", "value": 2.61}, {"measurement": "sensitizer enhancement ratio", "setting": "[4]; 6Gy", "value": 3.12}, {"measurement": "effect on radiosensitivity / IR-induced survival", "setting": "[4]; dose range 0 to 6 Gy", "value": "can significantly decrease IR-induced survival"}, {"measurement": "average number of γ-H2AX foci/nucleus", "setting": "[5]; 10 μM peptide, 30 minutes after 6Gy IR", "value": 6.9, "unit": "foci/nucleus"}, {"measurement": "inhibition of γ-H2AX foci formation", "setting": "[5]; 30 minutes after treatment with 6Gy IR", "value": "can inhibit γ-H2AX foci formation"}]}]}
